In this data set the test system is RHE cultures (ZenSkin). As to the kind of experiment: RHE irritancy test (MTT viability of RHE cultures). In kind it is cell-based. The following applies: 30 μL applied for 1 hour, MTT after 42 hours, relative to negative control (water), n=3.

Procedure: RHE cultures (ZenSkin®) (surface area=0.33 cm^2) were equilibrated overnight in a humidified incubator at 37° C. and 5% CO2. The next day RHE were removed from the incubator and inspected for residual liquid on the apical surface. Excess moisture was removed with sterile cotton swab and 30 μL of a topical pharmaceutical composition was applied to triplicate cultures (n=3). Sterile water served as a negative control and 1% Triton X-100 served as positive control. Once treated, RHE cultures were returned to the incubator for 1 hour and then gently washed to remove test substance. The washed inserts were then transferred to new 12 well plates prefilled with fresh 0.5 mL media. […]
After 42-hour incubation, the tissue cultures were transferred to a new plate containing fresh MTT substrate in tissue media and placed in the incubator at 37° C. and 5% CO2 for 2 hours. […] Optical density was measured at 570 nm without using a reference filter. […]
Percent cell viability was calculated as follows: 100×[OD(sample)/OD(neg control)]. […] The test formulations were classified as irritant or non-irritant based on EU and GHS classification, according to which an irritant (R38/Category 2) is determined if the mean relative tissue viability of tissues exposed to test material is reduced below 50% of the negative control.

triton X-100 gave a Mean percent viability of less than 20%.
